Data: US9776972B2, “Pyrazole derivatives as arginine methyltransferase inhibitors and uses thereof” (priority 2013, dated 2017)

Experiments:
[1] = tested on: mono-methyl arginine in RKO cells; assay: RKO Methylation Assay, In Cell Western (ICW) for mono-methyl arginine and DNA content; format: cell-based; conditions: Homo sapiens, RKO, 72 h, RKO cells, 72 hours, mono-methyl arginine, percent activation; single experiment or average of multiple experiments; read-out: EC30 (In Cell Western data, Numerical)
Source text: RKO adherent cells were purchased from ATCC (American Type Culture Collection), Manassas, Va., USA. DMEM/Glutamax medium, penicillin-streptomycin, heat inactivated fetal bovine serum, 0.05% trypsin and D-PBS were purchased from Life Technologies, Grand Island, N.Y., USA. Odyssey blocking buffer, 800CW goat anti-rabbit IgG (H+L) antibody, and Licor Odyssey infrared scanner were purchased from Licor Biosciences, Lincoln, Nebr., USA. Mono-methyl arginine antibody was purchased from Cell Signaling Technology, Danvers, Mass., USA. Methanol was purchased from VWR, Franklin, Mass., USA. 10% Tween 20 was purchased from KPL, Inc., Gaithersburg, Md., USA. DRAQ5 was purchased from Biostatus Limited, Leicestershire, UK.
RKO adherent cells were maintained in growth medium (DMEM/Glutamax medium supplemented with 10% v/v heat inactivated fetal bovine serum and 100 units/mL penicillin-streptomycin) and cultured at 37° C. under 5% CO2.
Cell Treatment, in Cell Western (ICW) for Detection of Mono-Methyl Arginine and DNA Content.
RKO cells were seeded in assay medium at a concentration of 20,000 cells per mL to a poly-D-lysine coated 384 well culture plate (BD Biosciences 356697) with 50 μL per well. Compound (100 nL) from a 96-well source plate was added directly to 384 well cell plate. Plates were incubated at 37° C., 5% CO2 for 72 hours. After three days of incubation, plates were brought to room temperature outside of the incubator for ten minutes and blotted on paper towels to remove cell media. 50 μL of ice cold 100% methanol was added directly to each well and incubated for 30 min at room temperature. After 30 min, plates were transferred to a Biotek EL406 plate washer and washed 2 times with 100 μL per well of wash buffer (1×PBS). Next 60 μL per well of Odyssey blocking buffer (Odyssey Buffer with 0.1% Tween 20 (v/v)) were added to each plate and incubated 1 hour at room temperature. Blocking buffer was removed and 20 μL per well of primary antibody was added (mono-methyl arginine diluted 1:200 in Odyssey buffer with 0.1% Tween 20 (v/v)) and plates were incubated overnight (16 hours) at 4° C. Plates were washed 5 times with 100 μL per well of wash buffer. Next 20 μL per well of secondary antibody was added (1:200 800CW goat anti-rabbit IgG (H+L) antibody, 1:1000 DRAQ5 (Biostatus limited) in Odyssey buffer with 0.1% Tween 20 (v/v)) and incubated for 1 hour at room temperature. The plates were washed 5 times with 100 μL per well wash buffer then 2 times with 100 μL per well of water. Plates were allowed to dry at room temperature then imaged on the Licor Odyssey machine which measures integrated intensity at 700 nm and 800 nm wavelengths. Both 700 and 800 channels were scanned.
First, the ratio for each well was determined by:
Each plate included fourteen control wells of DMSO only treatment (minimum activation) as well as fourteen control wells for maximum activation treated with 20 μM of a reference compound. The average of the ratio values for each control type was calculated and used to determine the percent activation for each test well in the plate. Reference compound was serially diluted three-fold in DMSO for a total of nine test concentrations, beginning at 20 μM. Percent activation was determined and EC30 curves were generated using triplicate wells per concentration of compound.

human PRMT3 = human PRMT3 (Homo sapiens, UniProt O60678); assay: PRMT3 Biochemical Assay (3H-SAM Flashplate, peptide substrate); conditions: single experiment or average of multiple experiments
Source text: S-adenosylmethionine (SAM), S-adenosylhomocysteine (SAH), bicine, Tween20, dimethylsulfoxide (DMSO), bovine skin gelatin (BSG), isopropyl-β-D-thiogalactopyranoside (IPTG), and Tris(2-carboxyethyl)phosphine hydrochloride solution (TCEP) were purchased from Sigma-Aldrich at the highest level of purity possible. ^3H-SAM was purchase from American Radiolabeled Chemicals with a specific activity of 80 Ci/mmol. 384-well streptavidin Flashplates were purchased from PerkinElmer.
Peptide containing the classic RMT substrate motif was synthesized with an N-terminal linker-affinity tag motif and a C-terminal amide cap by 21st Century Biochemicals. The peptide was purified by high-performance liquid chromatography (HPLC) to greater than 95% purity and confirmed by liquid chromatography mass spectrometry (LC-MS). The sequence was Biot-Ahx-[…]-amide (SEQ ID NO.:11).
Full-length human PRMT3 (NM_005788.3) isoform 1 transcript clone was amplified from an HEK 293 cDNA library and subcloned into pGEX-KG (GE Life Sciences). The resulting construct encodes an N-terminal GST tag and a thrombin cleavage sequence ([…] […] […] […]) (SEQ ID NO.: 12) fused directly to Cys 2 of PRMT3.
E. coli (BL21(DE3) Gold, Stratagene) made competent by the CaCl2 method were transformed with the PRMT3 construct and ampicillin selection. Protein over-expression was accomplished by growing the PRMT3 expressing E. coli clone and inducing expression with 0.3 mM IPTG at 16° C. The culture was grown for 12 hours, harvested by centrifugation, and stored at −80° C. for purification.
GST-tagged PRMT3 was eluted with 50 mM Tris, 2 mM glutathione, pH 7.1 and 50 mM Tris, 20 mM glutathione, pH 7.1. Pooled fractions were dialysed in 20 mM Tris, 50 mM NaCl, 5% glycerol, 1 mM EDTA, 1 mM DTT, pH7.5 (Buffer B) and applied to a Q Sepharose Fast Flow column. GST-tagged PRMT3 was eluted by 500 mM NaCl in buffer B. Pooled fractions were dialyzed in 25 mM phosphate buffer, 100 mM NaCl, 5% glycerol, 2 mM DTT, pH 6.8 (Buffer C) and loaded on to a ceramic hydroxyapatite column. GST-tagged PRMT3 eluted with 25-400 mM phosphate in buffer C. Protein was concentrated and buffer was exchanged to 20 mM Tris, 150 mM NaCl, 5% glycerol, 5 mM β-mercaptoethanol, pH7.8 by ultrafiltration. The purity of recovered protein was 70%.
General Procedure for PRMT3 Enzyme Assays on Peptide Substrates.
The assays were all performed in a buffer consisting of 20 mM Bicine (pH=7.6), 1 mM TCEP, 0.005% BSG, and 0.002% Tween 20, prepared on the day of use. Compounds in 100% DMSO (1 ul) were spotted into a polypropylene 384-well V-bottom plates (Greiner) using a Platemate Plus outfitted with a 384-channel head (Thermo Scientific). DMSO (1 ul) was added to Columns 11, 12, 23, 24, rows A-H for the maximum signal control and 1 ul of SAH, a known product and inhibitor of PRMT3, was added to columns 11, 12, 23, 24, rows I-P for the minimum signal control. A cocktail (40 ul) containing the PRMT3 enzyme was added by Multidrop Combi (Thermo-Fisher). The compounds were allowed to incubate with PRMT3 for 30 min at room temperature, then a cocktail (10 ul) containing SAM and peptide was added to initiate the reaction (final volume=51 ul). The final concentrations of the components were as follows: PRMT3 was 0.5 nM, ^3H-SAM was 100 nM, non-radiolabeled SAM was 1.8 uM, peptide was 330 nM, SAH in the minimum signal control wells was 1 mM, and the DMSO concentration was 2%. The assays were stopped by the addition of potassium chloride (10 ul) to a final concentration of 100 mM. 50 ul of the reaction in the 384-well polypropylene plate was then transferred to a 384-well Flashplate and the biotinylated peptides were allowed to bind to the streptavidin surface for at least 1 hour before being washed once with 0.1% Tween20 in a Biotek ELx405 plate washer. […]

Chain of human PRMT3 (O60678 with tags, fused parts or gaps): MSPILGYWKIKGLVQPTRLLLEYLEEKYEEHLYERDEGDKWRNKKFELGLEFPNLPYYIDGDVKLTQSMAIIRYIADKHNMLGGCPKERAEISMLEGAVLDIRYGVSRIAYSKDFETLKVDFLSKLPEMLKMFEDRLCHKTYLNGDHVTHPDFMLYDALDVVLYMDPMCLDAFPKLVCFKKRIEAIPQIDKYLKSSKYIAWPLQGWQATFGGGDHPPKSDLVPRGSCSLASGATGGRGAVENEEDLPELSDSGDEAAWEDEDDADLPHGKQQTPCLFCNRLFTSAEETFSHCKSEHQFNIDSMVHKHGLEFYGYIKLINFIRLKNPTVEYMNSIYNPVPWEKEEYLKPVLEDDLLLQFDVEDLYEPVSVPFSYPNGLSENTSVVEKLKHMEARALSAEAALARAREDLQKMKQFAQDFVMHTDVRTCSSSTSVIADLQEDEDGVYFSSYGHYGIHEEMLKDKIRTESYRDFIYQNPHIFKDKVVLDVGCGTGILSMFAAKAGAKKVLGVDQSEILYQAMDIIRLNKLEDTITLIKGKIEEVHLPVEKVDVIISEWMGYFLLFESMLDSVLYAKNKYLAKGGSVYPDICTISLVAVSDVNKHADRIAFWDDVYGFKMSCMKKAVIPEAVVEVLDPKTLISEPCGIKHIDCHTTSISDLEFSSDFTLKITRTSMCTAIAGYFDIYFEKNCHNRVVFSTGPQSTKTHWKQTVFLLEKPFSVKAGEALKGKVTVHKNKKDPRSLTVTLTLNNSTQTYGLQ

- IC50 (human PRMT3): 1.73 µM
Compound: CC(C)Cc1ccc(-c2n[nH]cc2CN(C)CCN)cc1 [Compound 165]
- EC30 [1]: 0.66 µM
